Assay results: paper PMC10986521 (Microbiology Spectrum, 2024)

Key:
in vitro = details: human
FMDV 3Cpro [1] = target: T1, FMDV 3Cpro (Foot-and-mouth disease virus A, UniProt A0A097I315); assay: biochemical; parameters: species or system FMDV A/IND287/96 strain (serotype A); details: FRET assay (IC50)
FMDV 3Cpro [2] = target: T1, FMDV 3Cpro; assay: cell-based; parameters: species or system FMDV A/IND287/96 strain; details: Cell-based assay (EC50)

CC(C)C[C@H](NC(=O)OC[C@@H]1C[C@H]1c1cccc(F)c1)C(=O)N[C@@H](C[C@H]1CCNC1=O)C(O)S(=O)(=O)O (stereo partly drawn) [Compound C5d]
CC50 (in vitro): > 50 µM
IC50 (FMDV 3Cpro [1]): 0.95 ± 0.22 µM
EC50 (FMDV 3Cpro [2]): 1.89 ± 0.09 µM

CC(C)C[C@H](NC(=O)OCC(C)(C)Oc1cccc(F)c1)C(=O)N[C@@H](C[C@@H]1CCNC1=O)C(O)S(=O)(=O)O (stereo partly drawn) [Compound D16d]
CC50 (in vitro): > 50 µM
IC50 (FMDV 3Cpro [1]): 0.69 ± 0.02 µM
EC50 (FMDV 3Cpro [2]): 5.05 ± 0.21 µM

CC(C)C[C@H](NC(=O)OC[C@@H]1C[C@H]1c1ccccc1)C(=O)N[C@@H](C[C@H]1CCNC1=O)C(O)S(=O)(=O)O (stereo partly drawn) [Compound C1d]
CC50 (in vitro): > 50 µM
IC50 (FMDV 3Cpro [1]): 0.75 ± 0.07 µM
EC50 (FMDV 3Cpro [2]): 3.25 ± 0.63 µM

CC(C)C[C@H](NC(=O)OCC(C)(C)Sc1ccc(F)cc1)C(=O)N[C@H](C=O)C[C@@H]1CCNC1=O [Compound D6c]
CC50 (in vitro): > 50 µM
IC50 (FMDV 3Cpro [1]): 0.91 ± 0.15 µM
EC50 (FMDV 3Cpro [2]): 5.15 ± 0.64 µM

CC(C)C[C@H](NC(=O)OCC(C)(C)Oc1ccc(F)cc1)C(=O)N[C@@H](C[C@@H]1CCNC1=O)C(O)S(=O)(=O)O (stereo partly drawn) [Compound D15d]
CC50 (in vitro): > 50 µM
IC50 (FMDV 3Cpro [1]): 0.55 ± 0.07 µM
EC50 (FMDV 3Cpro [2]): 5.9 ± 0.58 µM

COc1cccc([C@@H]2C[C@H]2COC(=O)N[C@@H](CC(C)C)C(=O)N[C@H](C=O)C[C@H]2CCNC2=O)c1 [Compound C9c]
CC50 (in vitro): > 50 µM
IC50 (FMDV 3Cpro [1]): 0.75 ± 0.14 µM
EC50 (FMDV 3Cpro [2]): 2.95 ± 0.28 µM

CC(C)C[C@H](NC(=O)OC[C@H]1[C@H](c2ccccc2)C1(F)F)C(=O)N[C@H](C=O)C[C@H]1CCNC1=O [Compound C2c]
CC50 (in vitro): > 50 µM
IC50 (FMDV 3Cpro [1]): 1.35 ± 0.64 µM
EC50 (FMDV 3Cpro [2]): 1.2 ± 0.14 µM

CCC[C@@H]1C[C@H]1COC(=O)N[C@@H](CC(C)C)C(=O)N[C@H](C=O)C[C@H]1CCNC1=O [Compound C13c]
CC50 (in vitro): > 50 µM
IC50 (FMDV 3Cpro [1]): 1.55 ± 0.07 µM
EC50 (FMDV 3Cpro [2]): 2.95 ± 0.21 µM

CC(C)C[C@H](NC(=O)OCC(C)(C)Sc1ccc(F)cc1)C(=O)N[C@@H](C[C@@H]1CCNC1=O)C(O)S(=O)(=O)O (stereo partly drawn) [Compound D6d]
CC50 (in vitro): > 50 µM
IC50 (FMDV 3Cpro [1]): 0.98 ± 0.11 µM
EC50 (FMDV 3Cpro [2]): 5.85 ± 0.35 µM

CC(C)C[C@H](NC(=O)OCC(C)(C)Oc1ccc(Cl)cc1)C(=O)N[C@H](C=O)C[C@@H]1CCNC1=O [Compound D11c]
CC50 (in vitro): > 50 µM
IC50 (FMDV 3Cpro [1]): 0.69 ± 0.06 µM
EC50 (FMDV 3Cpro [2]): 0.64 ± 0.15 µM

CC(C)C[C@H](NC(=O)OC[C@@H]1C[C@H]1C1CCC(F)(F)CC1)C(=O)N[C@@H](C[C@H]1CCNC1=O)C(O)S(=O)(=O)O (stereo partly drawn) [Compound C17d]
CC50 (in vitro): > 50 µM
IC50 (FMDV 3Cpro [1]): 0.75 ± 0.09 µM
EC50 (FMDV 3Cpro [2]): > 10 µM

CCOC(=O)CNC(=O)C(=O)[C@H](C[C@@H]1CCNC1=O)NC(=O)[C@H](CC(C)C)NC(=O)OCc1ccccc1 [Compound E6d]
CC50 (in vitro): > 50 µM
IC50 (FMDV 3Cpro [1]): 2.2 ± 0.05 µM
EC50 (FMDV 3Cpro [2]): 9.2 ± 0.1 µM

[2H]C([2H])(OC(=O)N[C@@H](CC(C)C)C(=O)N[C@H](C=O)C[C@@H]1CCNC1=O)C(C)(C)Oc1cccc(Cl)c1 [Compound D14c]
CC50 (in vitro): > 50 µM
IC50 (FMDV 3Cpro [1]): 0.5 ± 0.14 µM
EC50 (FMDV 3Cpro [2]): 3.38 ± 0.39 µM

CC(C)C[C@H](NC(=O)OCC(C)(C)Sc1nc2ccccc2[nH]1)C(=O)N[C@@H](C[C@@H]1CCNC1=O)C(O)S(=O)(=O)O (stereo partly drawn) [Compound D9d]
CC50 (in vitro): > 50 µM
IC50 (FMDV 3Cpro [1]): 1.75 ± 0.92 µM
EC50 (FMDV 3Cpro [2]): > 10 µM

COc1ccc([C@@H]2C[C@H]2COC(=O)N[C@@H](CC(C)C)C(=O)N[C@@H](C[C@H]2CCNC2=O)C(O)S(=O)(=O)O)cc1 (stereo partly drawn) [Compound C10d]
CC50 (in vitro): > 50 µM
IC50 (FMDV 3Cpro [1]): 1.05 ± 0.21 µM
EC50 (FMDV 3Cpro [2]): 2.85 ± 1.55 µM

CC(C)C[C@H](NC(=O)OCC(C)(C)[S+]([O-])c1ccccc1)C(=O)N[C@H](C=O)C[C@@H]1CCNC1=O (stereo partly drawn) [Compound D3c]
CC50 (in vitro): > 50 µM
IC50 (FMDV 3Cpro [1]): 1.14 ± 0.08 µM
EC50 (FMDV 3Cpro [2]): > 10 µM

CC(C)C[C@H](NC(=O)OC[C@@H]1C[C@H]1C1CCC(F)(F)CC1)C(=O)N[C@H](C=O)C[C@H]1CCNC1=O [Compound C17c]
CC50 (in vitro): > 50 µM
IC50 (FMDV 3Cpro [1]): 0.65 ± 0.07 µM
EC50 (FMDV 3Cpro [2]): > 10 µM

COc1ccc([C@@H]2C[C@H]2COC(=O)N[C@@H](CC(C)C)C(=O)N[C@H](C=O)C[C@H]2CCNC2=O)cc1 [Compound C10c]
CC50 (in vitro): > 50 µM
IC50 (FMDV 3Cpro [1]): 1.25 ± 0.07 µM
EC50 (FMDV 3Cpro [2]): 3.65 ± 1.48 µM

CC(C)C[C@H](NC(=O)OC[C@@H]1C[C@H]1c1cccc(F)c1)C(=O)N[C@H](C=O)C[C@H]1CCNC1=O [Compound C5c]
CC50 (in vitro): > 50 µM
IC50 (FMDV 3Cpro [1]): 1.05 ± 0.21 µM
EC50 (FMDV 3Cpro [2]): 2.13 ± 0.49 µM

CC(C)C[C@H](NC(=O)OCC(C)(C)Sc1nc2ccccc2[nH]1)C(=O)N[C@H](C=O)C[C@@H]1CCNC1=O [Compound D9c]
CC50 (in vitro): > 50 µM
IC50 (FMDV 3Cpro [1]): 2.15 ± 0.34 µM
EC50 (FMDV 3Cpro [2]): > 10 µM

CC(C)C[C@H](NC(=O)OCC(C)(C)[S+]([O-])c1ccccc1)C(=O)N[C@@H](C[C@@H]1CCNC1=O)C(O)S(=O)(=O)O (stereo partly drawn) [Compound D3d]
CC50 (in vitro): > 50 µM
IC50 (FMDV 3Cpro [1]): 1.05 ± 0.21 µM
EC50 (FMDV 3Cpro [2]): > 10 µM

CC(C)C[C@H](NC(=O)OC[C@@H]1C[C@H]1C1CCCCC1)C(=O)N[C@@H](C[C@H]1CCNC1=O)C(O)S(=O)(=O)O (stereo partly drawn) [Compound C15d]
CC50 (in vitro): > 50 µM
IC50 (FMDV 3Cpro [1]): 0.29 ± 0.08 µM
EC50 (FMDV 3Cpro [2]): 0.5 ± 0.11 µM

CC(C)C[C@H](NC(=O)OCC(C)(C)Oc1cccc(Cl)c1)C(=O)N[C@@H](C[C@@H]1CCNC1=O)C(O)S(=O)(=O)O (stereo partly drawn) [Compound D13d]
CC50 (in vitro): > 50 µM
IC50 (FMDV 3Cpro [1]): 0.65 ± 0.21 µM
EC50 (FMDV 3Cpro [2]): 7.7 ± 0.85 µM
